Data set [1] in a line: in vitro. The conditions noted are these: PAMPA, pH 7.4.
Description: Apparent permeability of the compound at pH 7.4 by PAMPA
A short description of data set [2]: Apparent partition coefficient, log P of the compound in n-octanol/aqueous mixture by potentiometric titration method. It counts as physicochemical.
Data set [3] is described as follows: in vitro. The conditions noted are these: human, liver microsomes.
Data set [4] is described as follows: physchem. The note with it: acetonitrile/water mixture.
Description: Solubility of the compound in acetonitrile/water mixture at 10 mM measured after 24 by HPLC-UV method
Data set [5] in a line: in vitro. The note with it: human, liver microsomes. This is another data set of the same source.
Description: Half life in human liver microsomes at 1 uM in presence of NADPH by LC-MS/MS method
Data set [6] in a line: physchem. The note with it: aqueous.
Data set [7] can be described thus: Drug degradation in pH >10 NH3 after 7 days by HPLC method.
Data set [8] is described as follows: physchem. The conditions noted are these: octanol/water, pH 10.
Data set [9] can be described thus: Drug degradation in pH <1 HCl after 7 days by HPLC method.

The values below come from ChEMBL document CHEMBL3992492, “Sulfoximines from a Medicinal Chemist's Perspective: Physicochemical and in vitro Parameters Relevant for Drug Discovery” (Eur J Med Chem, 2017).

In brackets after ≈: the same amount, converted by molar mass.

Turning to `O=S1(=Nc2ccc(C(F)(F)F)cc2)CCC1`, the Papp in data set [1] was 9.6 ×10⁻⁶ cm/s. Besides, the logP in [2] was 2.5. In addition, the hepatic extraction ratio at 1 µM in [3] was less than 0.23. Also, the solubility at 10000 µM in data set [4] was 48 µg/mL (≈ 193 µM). Also, the half-life at 1 µM in data set [5] is more than 2.17 h.
For `O=S1(=Nc2ccc(F)cc2)CCCCC1`, the Papp in data set [1] amounted to 9.5 ×10⁻⁶ cm/s. Moreover, in [2], the logP amounted to 0.7. The thermodynamic solubility in data set [6] is more than 1000 µg/mL. For the same compound, the hepatic extraction ratio at 1 µM in data set [3] amounted to 0.25. Besides, the solubility at 10000 µM in data set [4] was more than 46 µg/mL. Besides, the half-life at 1 µM in data set [5] stood at 2 h.
In [1], `O=S1(=Nc2ccccc2)CCCCC1` had a Papp of 9.5 ×10⁻⁶ cm/s. The logP in [2] is -0.1. For the same compound, the hepatic extraction ratio at 1 µM in data set [3] was less than 0.23. Moreover, in data set [4], the solubility at 10000 µM came out at 37 µg/mL (≈ 177 µM). In data set [5], this compound displayed a half-life at 1 µM of more than 2.17 h.
For the compound `CN=S(=O)(NC)c1ccc(C(F)(F)F)cc1` (configuration not stated), in data set [1], the Papp turned out to be 9.8 ×10⁻⁶ cm/s. Moreover, the Drug degradation in data set [7] and in [9] was less than 10% in each case. The solubility (thermodynamic) in data set [6] turned out to be 1200 µg/mL (≈ 4760 µM). The compound further returned a lipophilicity (logP) in data set [8] of 0.4. In data set [3], the hepatic extraction ratio at 1 µM is less than 0.23. The half-life at 1 µM in data set [5] is more than 2.17 h.
In the case of `CS(C)(=N)=NC(=O)c1ccc(C(F)(F)F)cc1`, in data set [1], the Papp worked out at 9.2 ×10⁻⁶ cm/s. Further, the results for the Drug degradation in data set [7] and in data set [9] were 34% and more than 90%, respectively. In addition, the solubility (thermodynamic) in [6] amounted to 8100 µg/mL (≈ 30700 µM). Also, the logP in [8] was determined as 0.4. Moreover, the hepatic extraction ratio at 1 µM in data set [3] is less than 0.23. In data set [5], this compound showed a half-life at 1 µM of more than 2.17 h.
In [6], `CS(=O)(=O)c1ccc(C(F)(F)F)cc1` gave a solubility (thermodynamic) of 300 µg/mL (≈ 1340 µM). The logP in [8] stood at 1.5. For the same compound, the solubility at 10000 µM in [4] is more than 47 µg/mL.
In turn, `CS(=O)(=O)Oc1ccc(C(F)(F)F)cc1` yielded a thermodynamic solubility in data set [6] of 300 µg/mL (≈ 1250 µM). The same compound registered a logP in [8] of 4.3.
With `O=S1(=Nc2ccc(C(F)(F)F)cc2)CCCC1`, the Papp in data set [1] stood at 8.7 ×10⁻⁶ cm/s. Also, the logP in data set [2] came out at 2.4. In data set [6], the thermodynamic solubility turned out to be 6000 µg/mL (≈ 22800 µM). Moreover, the hepatic extraction ratio at 1 µM in data set [3] stood at 0.26. In addition, in data set [4], the solubility at 10000 µM came out at 50 µg/mL (≈ 190 µM). In addition, in [5], the half-life at 1 µM was determined as 1.83 h.
In the case of `CNC(=O)c1ccc(C(F)(F)F)cc1`, the Papp in [1] came to 5.7 ×10⁻⁶ cm/s. For the same compound, the thermodynamic solubility in data set [6] amounted to 200 µg/mL (≈ 984 µM). The logP in data set [8] was determined as 0.5. Further, the hepatic extraction ratio at 1 µM in [3] was less than 0.23. The half-life at 1 µM in data set [5] was more than 2.17 h.
For `O=S1(=Nc2ccc(C(F)(F)F)cc2)CCOCC1`, the Papp in [1] came out at 8 ×10⁻⁶ cm/s. For the same compound, in data set [2], the logP was found to be 2.7. Besides, the solubility (thermodynamic) in [6] worked out at 300 µg/mL (≈ 1070 µM). Moreover, the hepatic extraction ratio at 1 µM in [3] is less than 0.23. Moreover, the solubility at 10000 µM in [4] is more than 57 µg/mL. For the same compound, in [5], the half-life at 1 µM is more than 2.17 h.
In the case of `CC(C)(C)S(C)(=O)=Nc1ccc(C(F)(F)F)cc1` (configuration not stated), the logP in [2] was 3.1. Moreover, in data set [4], the solubility at 10000 µM is 22 µg/mL (≈ 78.8 µM).
Turning to `CC(C)(C)OC(=O)Nc1ccc(C(F)(F)F)cc1`, in data set [1], the Papp stood at 0.8 ×10⁻⁶ cm/s. Further, the solubility (thermodynamic) in data set [6] was less than 1 µg/mL. Besides, in [8], the logP was determined as 4.4. Moreover, in [4], the solubility at 10000 µM is less than 1 µg/mL.
As to `Cn1cc(N=S2(=O)CCCCC2)cn1`, the Papp in [1] came out at 3.2 ×10⁻⁶ cm/s. Moreover, in data set [2], the logP was -3.9. Also, in [3], the hepatic extraction ratio at 1 µM is less than 0.23. In data set [4], the solubility at 10000 µM stood at 39 µg/mL (≈ 183 µM). The half-life at 1 µM in data set [5] is more than 2.17 h.
For `CCS(C)(=O)=Nc1ccc(C(F)(F)F)cc1` (configuration not stated), in that order: 7.7 ×10⁻⁶ cm/s, 2, less than 0.23, more than 51 µg/mL and more than 2.17 h.
`CNS(C)(=O)=Nc1ccc(C(F)(F)F)cc1` (configuration not stated) yielded a Papp in [1] of 5 ×10⁻⁶ cm/s. Moreover, the solubility (thermodynamic) in [6] worked out at 800 µg/mL (≈ 3170 µM). In addition, the logP in data set [8] worked out at 1.6. The hepatic extraction ratio at 1 µM in data set [3] was less than 0.23. In [4], the solubility at 10000 µM was more than 54 µg/mL. Moreover, the half-life at 1 µM in data set [5] was more than 2.17 h.
`CN=S(=O)(c1ccc(C(F)(F)F)cc1)N(C)C` (configuration not stated) showed a Papp in [1] of 9.5 ×10⁻⁶ cm/s. Besides, the Drug degradation in data set [7] was 10%; in data set [9], less than 10%. For the same compound, the thermodynamic solubility in data set [6] is 1200 µg/mL (≈ 4510 µM). The compound also gave a logP in data set [8] of 1.5. For the same compound, the hepatic extraction ratio at 1 µM in data set [3] is less than 0.23. The half-life at 1 µM in [5] was more than 2.17 h.
For `CC(C)(C)OC(=O)c1ccc(C(F)(F)F)cc1`, the solubility (thermodynamic) in data set [6] was found to be 20 µg/mL (≈ 81.2 µM). The logP in data set [8] worked out at 4.8. Moreover, in [4], the solubility at 10000 µM was 7 µg/mL (≈ 28.4 µM).
In turn, `O=S1(=Nc2ccccc2Cl)CCCCC1` returned a Papp in data set [1] of 12 ×10⁻⁶ cm/s. Further, in data set [2], the logP was 2. The compound further had a solubility (thermodynamic) in data set [6] of 500 µg/mL (≈ 2050 µM). Also, the hepatic extraction ratio at 1 µM in data set [3] worked out at 0.58. The solubility at 10000 µM in data set [4] was more than 50 µg/mL. Besides, the half-life at 1 µM in data set [5] turned out to be 0.467 h.
`CS(=O)(=O)Cc1ccc(C(F)(F)F)cc1` had a solubility (thermodynamic) in data set [6] of 400 µg/mL (≈ 1680 µM). Also, the logP in data set [8] was found to be 1.3.
